Earlier results on 9 molecules are cited in patent US20010039006A1, “Toxicity typing using embryoid bodies” (priority 1998, published 2001).

Where two headings read alike, the source gives them in different places.

The conditions of series [1]: for liver toxicity: known toxicity of the marketed drug.
The conditions of series [2]: human, in vivo.
For series [3] the following is noted: in vivo.
The conditions of series [4]: human, in vivo. This is another data set of the same source.

As to `CCOC(=O)C(C)(C)Oc1ccc(Cl)cc1` [clofibrate], in series [1] (Table 1), the “TOXICITIES LIVER” value is listed as “ntc”.

In the case of `N=C(N)NCCCCCCC(=O)NC(O)C(=O)NCCCCNCCCN` (stereo not drawn) [deoxyspergualin], the “TOXICITIES CV” value in series [2] is listed as “+”.

Regarding `CCC(=O)O[C@H]1[C@H](O[C@@H]2[C@@H](C)[C@H](O[C@H]3C[C@@](C)(OC)[C@@H](O)[C@H](C)O3)[C@@H](C)C(=O)O[C@H](CC)[C@@](C)(O)[C@H](O)[C@@H](C)C(=O)[C@H](C)C[C@@]2(C)O)O[C@H](C)C[C@@H]1N(C)C` [erythromycin estolate], the “liver toxicity” value in series [1] was “known liver toxicity”.

Consider `N.N.O=C([O-])C1(C(=O)[O-])CCC1.[Pt+2]` [carboplatin], for which, in series [3], the “TOXICITIES GI” value is listed as “+”.

In the case of `Cc1c(C)c2c(c(C)c1O)CCC(C)(COc1ccc(CC3SC(=O)NC3=O)cc1)O2` (stereo not drawn) [troglitazone], the “liver toxicity” value in series [1] is on record as “rare but severe liver toxicity”.

On to `COc1nc(C(Cl)(Cl)Cl)c(Cl)c(OC)c1Cl` [penclomedine], for which the “TOXICITIES CNS” value in series [4] is “+”.

Regarding `CN(CCOc1ccc(CC2SC(=O)NC2=O)cc1)c1ccccn1` (stereo not drawn) [rosiglitazone], the “TOXICITIES LIVER” value in series [1] (Table 1) was “ntc”.

`CC(=O)Nc1ccc(O)cc1` [acetominophen]: in series [1] (human, in vivo), the “TOXICITIES LIVER” value is reported as “+”.

As to `c1ccc2c(c1)cc1ccc3cccc4ccc2c1c34` [benzo(a)pyrene], in series [2], the “TOXICITIES CV” value is on record as “+”.
